The structures appear in SMILES notation.

One compound from patent publication US11458189B2, “Cytoprotective drugs” (BALMES TRANSPLANTATION, priority 2017, dated 2022) can be followed below.

This experiment concerns Sprague Dawley rats. The experiment can be described thus: Survival in acute renal failure model (unilateral renal ischemia-reperfusion with contralateral nephrectomy). In kind it is in vivo, rat. As to conditions: Allopurinol 3 mg/kg single iv injection 60 min before ischemia; up to 7 days after reperfusion; control group 29%. The protocol:
The protocol is similar to the one described by Narayan P et al, Am J Physiol Renal Physiol, 311(2):F352-61, 2016 and was approved by an ethics committee. In summary, general anesthesia is induced in male Sprague Dawley rats (250-300 g) using sodium pentobarbital (60 mg/kg, ip) instead of ketamine/xylazine in the protocol described by Narayan P et al, Am J Physiol Renal Physiol, 311 (2): F352-61, 2016. A skin incision is made on the dorsal surface and the left kidney is exposed by incisions on the flank. The left renal pedicle is then isolated and clamped for 60 minutes using atraumatic vascular clamps. The kidneys are replaced in the abdominal cavity to maintain temperature and the incision is covered with gauze soaked in 0.9% saline. After the ischemia time (60 minutes), the clamps are released to begin reperfusion. Reperfusion is monitored (kidney color change) for 1 to 2 minutes and physiological saline (1 mL) is administered to prevent dehydration. Next, a right kidney nephrectomy is performed and the incisions are closed with sutures. The animals are kept at approximately 37° C. using a thermoregulated system during the operation. Buprenorphine (0.2 mg/kg sc) is administered before the animals are returned to their cages and once a day until 4 days after reperfusion. […]
The compounds Micafungin (0.25 mg/kg), Anidulafungin (0.35 mg/kg) or the combination of the compounds Micafungin (0.25 mg/kg) and Allopurinol (3 mg/kg) are administered solubilized in physiological saline as a single intravenous injection into the tail vein 60 (±15) minutes before the onset of ischemia. The volume of administration of the compounds is determined on the basis of the body weight (2 mL/kg) of each animal. […]
For each experiment the curve of the number of surviving animals versus the number of days post-ischemia-reperfusion (Kaplan-Meier curve) is shown. The x-axis is graduated from the first day =0 to the seventh day =6 The y-axis is graduated from 0% to 100% of the initial population of the analyzed group. […]

As to `Oc1ncnc2[nH]ncc12` [Allopurinol], the “Surviving animals at end of Kaplan-Meier curve (% of initial population of the group)” value is on record as 63%.
